Results taken from US20130267522A1, “METHODS FOR TREATING CANCER” (priority 2012, published 2013).

System: naturally-occurring InvTCC
Assay: Study of folate-vinblastine conjugate in dogs with naturally-occurring InvTCC (tumor response)
Assay type: in vivo
Conditions: IV once weekly, dose escalation from 0.2 mg/kg
Procedure: A study was performed in dogs with naturally-occurring InvTCC to investigate antitumor activity and toxicity of folate targeted vinblastine treatment. The study of folate targeted vinblastine was performed in privately owned dogs with naturally-occurring InvTCC at the Purdue University Veterinary Teaching Hospital (PUVTH), Inclusion criteria for dogs in the study included: measurable, histologically-confirmed InvTCC; positive folate uptake detected by scintigraphy or FR expression observed in the tumor via IHC; expected survival of at least 6 weeks; and written dog owner consent. The study was open to dogs that had failed other therapies or who were not eligible for standard therapy.
The folate-vinblastine conjugate EC0905 was used. Briefly, EC0905 is a water-soluble folate conjugate of desacetylvinblastine monohydrazide (DA VLBH), which is constructed with the DA VLBH drug moiety attached to a hydrophilic folate-peptide compound via an endosome-cleavable disulfide bond (FIG. 1). A dose escalation study was performed. EC0905 was administered IV once weekly (starting dose 0.2 mg/kg), Dose escalation was performed within and between dogs with at least 3 dogs in each dose group, and at least 6 dogs treated at the maximum tolerated dose (MTD) (increased by 0.02 mg/kg in each dose group). Toxicity was assessed by CBCs, serum chemistry profiles, urinalyses, physical exams, and owner observations. Toxicity was classified by Veterinary Cooperative Oncology Group (VCOG) criteria.
The EC0905 dose was reduced by 10% if grade 2 toxicity was noted, and by 20% if grade 3 or higher toxicity occurred. Treatment was delayed by one week if the neutrophil count was<3000/mm^3 or platelet count <100,000/mm^3 the day treatment was due. The treatment protocol was scheduled to continue until 8 weeks beyond complete remission, or until cancer progression, or until unacceptable toxicity was noted.
Physical exam, medical history, and CBC were obtained weekly. Monthly evaluation included CBC, serum biochemical profile, urinalysis, urinary tract ultrasound, and mapping of the bladder masses by ultrasound. Urinary tumors were measured by a single ultrasound operator, and estimated tumor volume was recorded. Prior to treatment and at 8-week intervals, complete tumor staging (thoracic radiography, full abdominal ultrasonography) was performed, and tumor stage determined by the World Health Organization criteria for canine urinary bladder tumors. Tumor response was defined as: complete remission (no cancer detected), partial remission (PR, ≧50% decrease in tumor volume and no new tumor lesions), stable disease (SD, <50% change in tumor volume and no new tumor lesions), and progressive disease (PD, ≧50% increase in tumor volume or the development of new tumor lesions).

## Pte-γGlu-(Glu(1-amino-1-deoxy-D-glucitol)-Glu)3-Glu(1-amino-1-deoxy-D-glucitol)-Cys(S-ethyl-3-(4-desacetylvinblastinyl)hydrazinecarboxylate) [EC0905]
  Partial remission (PR), percent of cases: 50%
  Partial remission (PR, ≧50% decrease in tumor volume and no new tumor lesions), number of dogs: 5 dogs
  Stable disease (SD), percent of cases: 50%
  Stable disease (SD, <50% change in tumor volume and no new tumor lesions), number of dogs: 5 dogs
